Measurements published in US9353082B2, “Pharmaceutical compounds” (BIAL—PORTELA & CA, S.A., priority 2008, dated 2016).

Key:
FAAH [1] = biological target: T1, FAAH (Mus musculus, UniProt O08914); assay: In vivo FAAH inhibition after oral dosing, remaining activity in brain homogenate (BRh, central nervous tissue); set-up: species or system NMRI mice; conditions: brain homogenate, 3 mg/kg, 8 h
T1 construct: A fragment of liver, left lung lobe and brain without cerebellum were removed; from tissue; host or cells: male NMRI mice; brain (without cerebellum) and liver homogenates
T1 sequence (O08914 1-579): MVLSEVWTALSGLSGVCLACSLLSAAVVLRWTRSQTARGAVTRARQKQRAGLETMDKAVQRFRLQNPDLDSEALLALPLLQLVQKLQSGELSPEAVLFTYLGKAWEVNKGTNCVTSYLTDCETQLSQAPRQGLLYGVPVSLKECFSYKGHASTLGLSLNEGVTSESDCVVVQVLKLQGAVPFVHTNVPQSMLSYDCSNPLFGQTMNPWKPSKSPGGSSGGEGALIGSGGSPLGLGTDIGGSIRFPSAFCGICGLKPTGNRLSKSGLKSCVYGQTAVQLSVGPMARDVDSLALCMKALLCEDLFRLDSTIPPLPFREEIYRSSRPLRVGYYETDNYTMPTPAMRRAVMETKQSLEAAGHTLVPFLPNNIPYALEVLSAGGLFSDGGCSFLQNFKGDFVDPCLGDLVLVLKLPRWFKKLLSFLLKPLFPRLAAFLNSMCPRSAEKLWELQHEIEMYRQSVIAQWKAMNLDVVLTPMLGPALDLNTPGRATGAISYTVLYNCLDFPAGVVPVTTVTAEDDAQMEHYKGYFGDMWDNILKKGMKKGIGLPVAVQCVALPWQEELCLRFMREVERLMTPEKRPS
In short: (§1)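 Remaining FAAH activity is given as % of vehicle-treated controls after blank subtraction, measured by radiolabelled AEA hydrolysis (2 μM AEA, 5 nM 3H-AEA, 37 °C) in brain (10 min) or liver (7 min) homogenates. These came from fasted male NMRI mice dosed orally at 30 or 3 mg/kg.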

FAAH [2] = biological target: T1, FAAH; assay: In vivo FAAH inhibition after oral dosing, remaining activity in liver homogenate (LVh, peripheral tissue); set-up: species or system NMRI mice; conditions: liver homogenate, 3 mg/kg, 8 h
In short: as §1

FAAH [3] = biological target: T2, FAAH (Rattus norvegicus, UniProt P97612); assay: In vitro FAAH activity in rat brain membranes, 3H-AEA substrate, % of control; format: biochemical, Wistar rats; conditions: low value = strong inhibitor; for In Vitro FAAH activity, 100 nM: 100 nM test compound; for In Vitro FAAH activity, 10 uM: 10 uM test compound
T2 construct: Frozen brains (without cerebellum) from Wistar rats were used; from tissue; host or cells: Wistar rat brain (without cerebellum), washed membrane pellets
T2 sequence (P97612 1-579): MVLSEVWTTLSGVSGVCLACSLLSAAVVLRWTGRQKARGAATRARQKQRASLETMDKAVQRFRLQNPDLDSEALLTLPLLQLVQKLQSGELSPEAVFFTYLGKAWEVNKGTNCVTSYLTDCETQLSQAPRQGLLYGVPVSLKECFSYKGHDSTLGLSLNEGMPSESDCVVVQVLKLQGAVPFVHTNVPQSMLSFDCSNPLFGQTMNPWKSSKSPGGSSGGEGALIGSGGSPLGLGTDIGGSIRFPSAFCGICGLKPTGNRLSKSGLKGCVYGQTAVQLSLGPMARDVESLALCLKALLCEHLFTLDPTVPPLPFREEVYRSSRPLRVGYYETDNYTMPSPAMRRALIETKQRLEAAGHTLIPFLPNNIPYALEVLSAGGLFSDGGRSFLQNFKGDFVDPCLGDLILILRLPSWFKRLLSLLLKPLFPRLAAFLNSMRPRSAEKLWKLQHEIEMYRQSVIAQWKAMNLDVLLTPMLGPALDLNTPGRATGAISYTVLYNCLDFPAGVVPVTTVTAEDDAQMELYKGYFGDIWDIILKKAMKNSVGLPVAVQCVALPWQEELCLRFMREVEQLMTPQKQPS
In short: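 FAAH activity measured as 3H-ethanolamine released from 2 μM [3H]AEA over 10 min by rat brain membrane preparation, after 15 min 37 °C preincubation with test compound at 10 or 0.1 μM. Charcoal-separated supernatant scintillation-counted; values expressed as % of control minus no-protein blank.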

Row | Compound | In Vivo BRh 3 mg/kg 8 h, remaining FAAH activity (FAAH [1]) | In Vivo LVh 3 mg/kg 8 h, remaining FAAH activity (FAAH [2]) | In Vitro FAAH activity, 100 nM (FAAH [3]) | In Vitro FAAH activity, 10 uM (FAAH [3])
1 | COc1ccc(-c2cn(C(=O)N3COCC3(C)C)cn2)cc1OC [Compound 216, (4-(3,4-dimethoxyphenyl)-1H-imidazol-1-yl)(4,4-dimethyloxazolidin-3-yl)methanone] | 29.3 % of control | 13.3 % of control | 108.6 % of control | 38.3 % of control
2 | COc1ccc(-c2cn(C(=O)N(C)C3CCCCC3)cn2)cc1OC [Compound 217, N-cyclohexyl-4-(3,4-dimethoxyphenyl)-N-methyl-1H-imidazole-1-carboxamide] | 6 % of control | 4.2 % of control | 80.5 % of control | 0 % of control
3 | CC1(C)COCN1C(=O)n1cnc2ccccc21 [Compound 219, (1H-benzo[d]imidazol-1-yl)(4,4-dimethyloxazolidin-3-yl)methanone] | 86.8 % of control | 89 % of control | 111.6 % of control | 50.6 % of control
4 | CC1(C)OCCN1C(=O)n1cnc(-c2ccccc2)c1 [Compound 220, (2,2-dimethyloxazolidin-3-yl)(4-phenyl-1H-imidazol-1-yl)methanone] | 31.5 % of control | 20 % of control | 103.7 % of control | –
5 | C[C@@H]1CCC[C@H](C)N1C(=O)n1cnc(-c2ccccc2)c1 [Compound 221, ((2R,6S)-2,6-dimethylpiperidin-1-yl)(4-phenyl-1H-imidazol-1-yl)methanone] | 104.5 % of control | 44.9 % of control | 105.8 % of control | –
6 | CN(C(=O)n1cnc2ccccc21)C1CCCCC1 [Compound 222, N-cyclohexyl-N-methyl-1H-benzo[d]imidazole-1-carboxamide] | 111.5 % of control | 59.2 % of control | 102.9 % of control | –
7 | CC1(C)COCN1C(=O)n1cnc(-c2cccnc2)c1.Cl.Cl [Compound 226, (4,4-dimethyloxazolidin-3-yl)(4-(pyridin-3-yl)-1H-imidazol-1-yl)methanone dihydrochloride] | 8.4 % of control | 5.1 % of control | 76.6 % of control | –
8 | COc1cc(-c2cn(C(=O)N3COCC3(C)C)cn2)ccc1O [Compound 228, (4,4-dimethyloxazolidin-3-yl)(4-(4-hydroxy-3-methoxyphenyl)-1H-imidazol-1-yl)methanone] | 56.4 % of control | 31.9 % of control | 78.1 % of control | –
9 | CC1(C)COCN1C(=O)n1cnc(-c2cccc(-c3ccccc3)c2)c1 [Compound 231, (4-(biphenyl-3-yl)-1H-imidazol-1-yl)(4,4-dimethyloxazolidin-3-yl)methanone] | 3.9 % of control | 3.6 % of control | 54.2 % of control | –
10 | CC1(C)COCN1C(=O)n1cnc(-c2cccc(-c3cccc(C(N)=O)c3)c2)c1 [Compound 232, 3′-(1-(4,4-dimethyloxazolidine-3-carbonyl)-1H-imidazol-4-yl)biphenyl-3-carboxamide] | 82.8 % of control | 6.5 % of control | 84.7 % of control | 0 % of control
11 | CCC1(C)OCCN1C(=O)n1cnc(-c2ccc(Cl)cc2)c1 (stereo not shown) [Compound 233, (4-(4-chlorophenyl)-1H-imidazol-1-yl)(2-ethyl-2-methyloxazolidin-3-yl)methanone] | 33.5 % of control | 21.1 % of control | 74.1 % of control | –
12 | CC1OCC(C)(C)N1C(=O)n1cnc(-c2ccc(Cl)cc2)c1 (stereo not shown) [Compound 235, (4-(4-chlorophenyl)-1H-imidazol-1-yl)(2,4,4-trimethyloxazolidin-3-yl)methanone] | 108.5 % of control | 80.1 % of control | 76.2 % of control | –
13 | COc1cccc(-c2cccc(-c3cn(C(=O)N4COCC4(C)C)cn3)c2)c1 [Compound 236, (4,4-dimethyloxazolidin-3-yl)(4-(3′-methoxybiphenyl-3-yl)-1H-imidazol-1-yl)methanone] | 67.7 % of control | 37.7 % of control | 75.4 % of control | –
14 | CN(C(=O)n1cnc(-c2cccc(-c3cccc(C(N)=O)c3)c2)c1)C1CCCCC1 [Compound 238, 4-(3′-carbamoylbiphenyl-3-yl)-N-cyclohexyl-N-methyl-1H-imidazole-1-carboxamide] | 67.9 % of control | 2.8 % of control | 1.2 % of control | –
15 | CN(C(=O)n1cnc(-c2cccc(-c3ccccc3)c2)c1)C1CCCCC1 [Compound 239, 4-(biphenyl-3-yl)-N-cyclohexyl-N-methyl-1H-imidazole-1-carboxamide] | 16.4 % of control | 4.6 % of control | 4 % of control | –
16 | COc1cccc(-c2cccc(-c3cn(C(=O)N(C)C4CCCCC4)cn3)c2)c1 [Compound 240, N-cyclohexyl-4-(3′-methoxybiphenyl-3-yl)-N-methyl-1H-imidazole-1-carboxamide] | 99 % of control | 39.5 % of control | 22.4 % of control | –
17 | CN(C(=O)n1cnc(-c2cccc(-c3ccc(C(N)=O)cc3)c2)c1)C1CCCCC1 [Compound 245, 4-(4′-carbamoylbiphenyl-3-yl)-N-cyclohexyl-N-methyl-1H-imidazole-1-carboxamide] | 90.6 % of control | 15.8 % of control | 0.4 % of control | –
18 | CN(C(=O)n1cnc(-c2cccc(-c3cccc(O)c3)c2)c1)C1CCCCC1 [Compound 247, N-cyclohexyl-4-(3′-hydroxybiphenyl-3-yl)-N-methyl-1H-imidazole-1-carboxamide] | 131.7 % of control | 85.5 % of control | 0.5 % of control | –
19 | CN(C(=O)n1cnc(-c2cccc(-c3cccc(OC(F)(F)F)c3)c2)c1)C1CCCCC1 [Compound 248, N-cyclohexyl-N-methyl-4-(3′-(trifluoromethoxy)biphenyl-3-yl)-1H-imidazole-1-carboxamide] | 104.2 % of control | 57 % of control | 68.9 % of control | –
20 | CC(C)N(Cc1ccccc1)C(=O)n1cnc(-c2ccccc2)c1 [Compound 250, N-benzyl-N-isopropyl-4-phenyl-1H-imidazole-1-carboxamide] | 102.1 % of control | 52.6 % of control | 90.5 % of control | –
